Measurements as given in patent publication US9763997B2, “Spray drying vancomycin” (Hospira, Inc., priority 2011, dated 2017).
Counter-ions that a name gives are not always drawn.

Key:
[1] = Stability testing of spray dried batches at 25° C./60% RH, 30° C./60% RH, 40° C./75% RH (moisture by Karl Fischer, pH of reconstituted solution, reconstitution time, chromatographic purity); type: physicochemical; details: Initial
Experimental: (§1) Batches for stability testing were made using the spray dried formulation of vancomycin HCl (15% by weight), PEG-400 (3% by weight), mannitol (3% by weight) in WFI, with the API sourced from Abbott Laboratories (North Chicago, Ill.). Spray dried batches were stored at 25° C./60% Relative Humidity (RH), 30° C./60% RH, and 40° C./75% RH for three months. The stability data on moisture by Karl Fischer, pH (of the reconstituted solution), reconstitution time and chromatographic purity are presented in Table 7. The chromatographic purity was examined using the analytical HPLC method described in the current USP (United States Pharmacopeia) monograph for vancomycin. The test results for the API lot used to make the spray dried product were also listed for comparison.
The chromatographic purity of vancomycin B for all samples tested in this study were within USP specifications. All samples were stored at the accelerated conditions of 40° C./75% RH for 3 months and met USP criterion for vancomycin B by chromatographic purity (NLT 80% vancomycin B).

[2] = Chromatographic purity (vancomycin B and impurities), analytical HPLC method of the USP vancomycin monograph; type: physicochemical
Experimental: as §1

## CN[C@H](CC(C)C)C(=O)N[C@H]1C(=O)N[C@@H](CC(N)=O)C(=O)N[C@H]2C(=O)N[C@H]3C(=O)N[C@H](C(=O)N[C@H](C(=O)O)c4cc(O)cc(O)c4-c4cc3ccc4O)[C@H](O)c3ccc(c(Cl)c3)Oc3cc2cc(c3O[C@@H]2O[C@H](CO)[C@@H](O)[C@H](O)[C@H]2O[C@H]2C[C@](C)(N)[C@H](O)[C@H](C)O2)Oc2ccc(cc2Cl)[C@H]1O [API Lot 09097619, Vancomycin HCl]
[1]
  % Vancomycin B: 91.9%

## CN[C@H](CC(C)C)C(=O)N[C@H]1C(=O)N[C@@H](CC(N)=O)C(=O)N[C@H]2C(=O)N[C@H]3C(=O)N[C@H](C(=O)N[C@H](C(=O)O)c4cc(O)cc(O)c4-c4cc3ccc4O)[C@H](O)c3ccc(c(Cl)c3)Oc3cc2cc(c3O[C@@H]2O[C@H](CO)[C@@H](O)[C@H](O)[C@H]2O[C@H]2C[C@](C)(N)[C@H](O)[C@H](C)O2)Oc2ccc(cc2Cl)[C@H]1O [API, Vancomycin Hydrochloride]
[2]; Table 8, other impurities
  Other: 4.5%
[2]; Table 8, tested for impurities
  N-Demethylvancomycin: 0.6%
  Vancomycin B: 94.9%
